We go through eight molecules from PubChem BioAssay (NCI).

Test systems include A549 NSCLC; MCF7 breast; NCI-H460 lung; PC-3 prostate; SF-268 CNS; SF-295 CNS; SNB-75 CNS; UO-31 renal; ACHN renal; EKVX NSCLC.
Common to all, as to assay: NCI anticancer screen, dose series, 48 h

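Cultured in 96-well plates, cells were exposed to test compound for 48 hours across five concentrations. At the GI50, growth is halved. TGI: total growth inhibition.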

Take `COc1cc(/C=C2\CCC/C(=C\c3ccc(OCC4CO4)c(OC)c3)C2=O)ccc1OCC1CO1` (configuration not stated): the GI50 with A549 NSCLC was 2.14 µM; in the assay with MCF7 breast, 2.02 µM; in the assay on NCI-H460 lung it was 2.37 µM; with PC-3 prostate it was 3.13 µM; with SF-268 CNS, 2.62 µM; in the assay on SF-295 CNS, 4.35 µM. Moreover, the results for the GI50 with SNB-75 CNS and with UO-31 renal were 2.92 µM and 2.51 µM, respectively. For the same molecule, the TGI with A549 NSCLC came out at 5.09 µM; in the assay with MCF7 breast, 7.32 µM; in the assay with NCI-H460 lung, 5.59 µM; with PC-3 prostate, 45.7 µM; in the assay on SF-268 CNS, 8.41 µM; in the assay with SF-295 CNS, 84.4 µM. Besides, the figures for the TGI with SNB-75 CNS and in the assay on UO-31 renal were 19.1 µM and 7.94 µM, respectively.

On to `CNCCn1c(=O)c2cc(OC)c(OC)cc2c2cnc3cc4c(cc3c21)OCO4`, for which the GI50 in the assay on A549 NSCLC was < 0.01 µM; in the assay with ACHN renal, < 0.01 µM; in the assay with MCF7 breast, < 0.01 µM; in the assay with NCI-H460 lung, < 0.01 µM; in the assay with PC-3 prostate it was 0.021 µM; with SF-268 CNS, < 0.01 µM. Also, the GI50 in the assay on SF-295 CNS, with SNB-75 CNS and with UO-31 renal was < 0.01 µM each time. The TGI in the assay with A549 NSCLC was 1.31 µM; with ACHN renal, 1.12 µM; with MCF7 breast, 1.14 µM; with NCI-H460 lung it was 0.217 µM; in the assay on PC-3 prostate, 1.87 µM; with SF-268 CNS, 1.78 µM. Also, the TGI in the assay with SF-295 CNS was < 0.0155 µM; in the assay on SNB-75 CNS, 0.0658 µM; in the assay with UO-31 renal it was 1.21 µM.

For the molecule `O=C(N/N=C/c1ccc(O)cc1O)c1cccnc1`, the GI50 is 4.66 µM in the assay with A549 NSCLC; 1.47 µM with ACHN renal; 1.94 µM with MCF7 breast; 1.18 µM in the assay on NCI-H460 lung; 4.14 µM in the assay on PC-3 prostate; 2.22 µM in the assay on SF-268 CNS. Also, the figures for the GI50 with SF-295 CNS, with SNB-75 CNS and with UO-31 renal were 6.66 µM, 1.15 µM and 1.46 µM, respectively. In addition, the TGI in the assay with A549 NSCLC was > 100 µM; in the assay on ACHN renal, > 100 µM; in the assay with MCF7 breast, 7.5 µM; with NCI-H460 lung, > 100 µM; in the assay with PC-3 prostate, 46.9 µM; in the assay on SF-268 CNS, 59.4 µM. Besides, the TGI was > 100 µM in the assay on SF-295 CNS, 26.1 µM in the assay with SNB-75 CNS and > 100 µM with UO-31 renal.

As to `COc1ccc2c(c1)C(C)Cc1c(ncnc1-n1cnc3ccccc31)N2C` (configuration not stated), the GI50 with A549 NSCLC is 0.642 µM; in the assay with ACHN renal, 0.635 µM; in the assay with EKVX NSCLC it was 0.632 µM; in the assay with MCF7 breast it was 0.313 µM; with NCI-H460 lung it was 0.397 µM; in the assay on PC-3 prostate it was 0.409 µM. Besides, the figures for the GI50 in the assay with SF-268 CNS, with SF-295 CNS and in the assay with UO-31 renal were 0.822 µM, 0.292 µM and 0.72 µM, respectively. In addition, the TGI with A549 NSCLC turned out to be 16.6 µM; with ACHN renal it was 27.4 µM; with EKVX NSCLC it was 20 µM; in the assay with MCF7 breast it was 14 µM; in the assay on NCI-H460 lung it was 11.4 µM; with PC-3 prostate, 17.5 µM. Also, the figures for the TGI in the assay with SF-268 CNS, with SF-295 CNS and in the assay with UO-31 renal were 18.1 µM, 10.2 µM and 19.2 µM, respectively.

Turning to `Cc1cc(NCCCCNc2ccnc3cc(Cl)ccc23)nc(Nc2ccc(C(=O)N3CCCCC3)cc2)n1`, the GI50 in the assay on A549 NSCLC was 2.51 µM; in the assay with ACHN renal it was 3.01 µM; in the assay on EKVX NSCLC, 2.97 µM; in the assay on MCF7 breast, 1.48 µM; in the assay with NCI-H460 lung, 1.78 µM; with PC-3 prostate, 1.32 µM. In addition, the GI50 was 1.77 µM in the assay with SF-268 CNS, 1.67 µM with SF-295 CNS and 1.72 µM with SNB-75 CNS. In addition, the TGI with A549 NSCLC was found to be 5.47 µM; with ACHN renal, 9.28 µM; with EKVX NSCLC it was 10.8 µM; with MCF7 breast, 4.34 µM; in the assay on NCI-H460 lung it was 3.78 µM; in the assay with PC-3 prostate, 3.24 µM. For the same molecule, the TGI in the assay with SF-268 CNS stood at 3.64 µM; in the assay on SF-295 CNS, 3.25 µM; in the assay with SNB-75 CNS, 3.29 µM.

Turning to `Nc1c(C(=O)Nc2ccccc2Cl)sc2nc3c(cc12)C(=O)CCC3`, the GI50 in the assay on A549 NSCLC was 0.648 µM; with ACHN renal, 15.9 µM; in the assay on MCF7 breast it was 0.494 µM; in the assay on NCI-H460 lung, 0.673 µM; in the assay on PC-3 prostate, 1.16 µM; in the assay with SF-268 CNS it was 39.3 µM. Also, the results for the GI50 with SF-295 CNS, in the assay with SNB-75 CNS and with UO-31 renal were 0.542 µM, 2.46 µM and > 100 µM, respectively. In addition, the TGI in the assay on A549 NSCLC, in the assay on ACHN renal, with MCF7 breast, with NCI-H460 lung, with PC-3 prostate and with SF-268 CNS was > 100 µM in each case. Further, the TGI with SF-295 CNS is > 27.5 µM; in the assay with SNB-75 CNS, > 84 µM; in the assay with UO-31 renal, > 100 µM.

Consider `O=C(NC1CCCCC1)c1ccc(Nc2ncnc3c2cnn3-c2ccccc2)cc1`, for which the GI50 in the assay with A549 NSCLC was 4.38 µM; in the assay on ACHN renal, 3.32 µM; in the assay on MCF7 breast it was 74.1 µM; in the assay with NCI-H460 lung it was 7.09 µM; with PC-3 prostate it was 11.8 µM; with SF-268 CNS, 5.85 µM. Besides, the values for the GI50 with SF-295 CNS, in the assay on SNB-75 CNS and with UO-31 renal were 2.98 µM, 1.71 µM and 23.9 µM, respectively. The TGI in the assay on A549 NSCLC was 51.3 µM; in the assay with ACHN renal, 11 µM; in the assay on MCF7 breast, > 100 µM; in the assay with NCI-H460 lung it was > 100 µM; in the assay on PC-3 prostate, 44.8 µM; with SF-268 CNS it was > 100 µM. The TGI in the assay on SF-295 CNS is 13.3 µM; in the assay with SNB-75 CNS, 5.4 µM; in the assay with UO-31 renal, > 100 µM.

`O=C1/C(=C/N2N=C(c3ccc4ccccc4c3)CC2c2ccccc2O)SC(=S)N1c1cccnc1` (configuration not stated): the GI50 is 0.704 µM in the assay with A549 NSCLC; 1.65 µM in the assay with ACHN renal; 0.371 µM with MCF7 breast; 0.514 µM in the assay with NCI-H460 lung; 0.518 µM in the assay with PC-3 prostate; 4.08 µM in the assay on SF-268 CNS. The GI50 is 2.63 µM with SF-295 CNS, 0.987 µM in the assay with SNB-75 CNS and 0.852 µM with UO-31 renal. Further, the TGI with A549 NSCLC, in the assay on ACHN renal, in the assay with MCF7 breast, in the assay on NCI-H460 lung, with PC-3 prostate and in the assay with SF-268 CNS was > 100 µM throughout. For the same molecule, the TGI with SF-295 CNS is > 100 µM; in the assay with SNB-75 CNS it was 13.1 µM; with UO-31 renal, > 100 µM.
